# Measurements: US20160066603A1, “FULVIC ACID AND DERIVATIVES AND METHODS OF PREPARATION AND USE” (EMPIRE TECHNOLOGY DEVELOPMENT LLC, priority 2013, published 2016)
# Format: physicochemical
# Protocol: The degradation products of Example 1, recovered after three hours of hydrolysis, were evaluated as antioxidants and thermal stabilizers for PVC, low density polyethylene (LDPE), and polyvinyl alcohol (PVA) to evaluate the anti-oxidation efficiency using thermal analysis techniques (DSC, TGA, and DTG). The thermooxidative enthalpy change from DSC curves (e.g. FIGS. 1-3) and the % of HCl loss as a function of temperature represent the stability of polyethylene and PVC respectively.
# The mechanism of stabilizing PVC is based on capturing the evolved HCl from dehydrochlorination by the metal ions and the transition metal, accordingly deactivating the catalytic role of HCl in the thermal decomposition.
substance,measurement,value
fulvic acid,Stability compared with the PVC control polymer,more stable than the PVC control polymer
